This is an account of results in patent US9539260B2, “Dihydro-benzo-oxazine and dihydro-pyrido-oxazine derivatives” (Novartis AG, priority 2012, dated 2017).

One assay deals with PI3K alpha (Homo sapiens (Human), UniProt P42336). Briefly: Enzymatic PI3K alpha isoform inhibition (lipid kinase activity, Kinase-Glo luminescence). In kind it is biochemical. To be noted: Enzymatic assay. An outline of the steps: (§1)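 IC50s derive from 4-parameter logistic fits of % inhibition across 8 concentrations (usually 10 to 0.003 μM). Lipid kinase reaction: PI3K (10 nM) plus phosphatidylinositol (5 μg/mL) started with 2 μM ATP, stopped near 50% ATP depletion; leftover ATP quantified by Kinase-Glo luminescence.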

For a further assay, the target named is PI3K delta (Homo sapiens (Human), UniProt O00329). Nature of the assay: Enzymatic PI3K delta isoform inhibition (lipid kinase activity, Kinase-Glo luminescence). The following applies: Enzymatic assay. In kind it is biochemical. An outline of the steps:
as §1

pIC50: −log10 of the molar value. Where only a bound is given, the exact number is not on record here.

Sequence of PI3K delta (O00329 other isoform, or with tags, fused parts or gaps linker GGGGGG): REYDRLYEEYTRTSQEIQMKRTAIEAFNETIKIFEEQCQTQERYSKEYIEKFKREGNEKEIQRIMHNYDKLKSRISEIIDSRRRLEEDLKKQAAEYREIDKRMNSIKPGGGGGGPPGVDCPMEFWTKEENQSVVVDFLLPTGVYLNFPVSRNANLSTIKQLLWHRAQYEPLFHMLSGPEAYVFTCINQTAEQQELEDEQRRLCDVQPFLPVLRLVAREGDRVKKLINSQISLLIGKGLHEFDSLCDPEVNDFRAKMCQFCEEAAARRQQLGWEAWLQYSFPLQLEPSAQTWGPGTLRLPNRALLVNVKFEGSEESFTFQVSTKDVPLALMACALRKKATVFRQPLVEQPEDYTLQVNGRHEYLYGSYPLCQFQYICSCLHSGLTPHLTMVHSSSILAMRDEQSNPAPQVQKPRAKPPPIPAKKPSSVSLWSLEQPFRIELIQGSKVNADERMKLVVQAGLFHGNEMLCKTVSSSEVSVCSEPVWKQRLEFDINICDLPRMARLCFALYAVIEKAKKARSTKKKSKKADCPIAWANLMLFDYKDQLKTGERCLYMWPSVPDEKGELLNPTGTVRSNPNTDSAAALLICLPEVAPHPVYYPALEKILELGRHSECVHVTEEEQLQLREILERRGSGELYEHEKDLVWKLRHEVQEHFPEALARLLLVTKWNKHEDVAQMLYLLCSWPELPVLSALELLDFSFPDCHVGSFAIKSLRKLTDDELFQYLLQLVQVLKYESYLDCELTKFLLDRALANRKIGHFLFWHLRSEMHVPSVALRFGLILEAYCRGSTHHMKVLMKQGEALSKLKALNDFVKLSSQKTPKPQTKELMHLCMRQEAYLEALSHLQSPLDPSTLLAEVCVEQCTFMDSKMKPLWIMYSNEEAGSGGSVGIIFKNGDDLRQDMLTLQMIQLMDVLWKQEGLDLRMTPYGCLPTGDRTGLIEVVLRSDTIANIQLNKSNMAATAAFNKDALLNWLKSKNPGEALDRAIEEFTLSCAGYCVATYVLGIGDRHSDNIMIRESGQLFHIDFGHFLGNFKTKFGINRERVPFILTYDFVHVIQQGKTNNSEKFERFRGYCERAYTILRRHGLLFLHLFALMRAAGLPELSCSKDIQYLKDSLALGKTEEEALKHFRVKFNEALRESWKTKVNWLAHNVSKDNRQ
Sequence of PI3K alpha (P42336 other isoform, or with tags, fused parts or gaps): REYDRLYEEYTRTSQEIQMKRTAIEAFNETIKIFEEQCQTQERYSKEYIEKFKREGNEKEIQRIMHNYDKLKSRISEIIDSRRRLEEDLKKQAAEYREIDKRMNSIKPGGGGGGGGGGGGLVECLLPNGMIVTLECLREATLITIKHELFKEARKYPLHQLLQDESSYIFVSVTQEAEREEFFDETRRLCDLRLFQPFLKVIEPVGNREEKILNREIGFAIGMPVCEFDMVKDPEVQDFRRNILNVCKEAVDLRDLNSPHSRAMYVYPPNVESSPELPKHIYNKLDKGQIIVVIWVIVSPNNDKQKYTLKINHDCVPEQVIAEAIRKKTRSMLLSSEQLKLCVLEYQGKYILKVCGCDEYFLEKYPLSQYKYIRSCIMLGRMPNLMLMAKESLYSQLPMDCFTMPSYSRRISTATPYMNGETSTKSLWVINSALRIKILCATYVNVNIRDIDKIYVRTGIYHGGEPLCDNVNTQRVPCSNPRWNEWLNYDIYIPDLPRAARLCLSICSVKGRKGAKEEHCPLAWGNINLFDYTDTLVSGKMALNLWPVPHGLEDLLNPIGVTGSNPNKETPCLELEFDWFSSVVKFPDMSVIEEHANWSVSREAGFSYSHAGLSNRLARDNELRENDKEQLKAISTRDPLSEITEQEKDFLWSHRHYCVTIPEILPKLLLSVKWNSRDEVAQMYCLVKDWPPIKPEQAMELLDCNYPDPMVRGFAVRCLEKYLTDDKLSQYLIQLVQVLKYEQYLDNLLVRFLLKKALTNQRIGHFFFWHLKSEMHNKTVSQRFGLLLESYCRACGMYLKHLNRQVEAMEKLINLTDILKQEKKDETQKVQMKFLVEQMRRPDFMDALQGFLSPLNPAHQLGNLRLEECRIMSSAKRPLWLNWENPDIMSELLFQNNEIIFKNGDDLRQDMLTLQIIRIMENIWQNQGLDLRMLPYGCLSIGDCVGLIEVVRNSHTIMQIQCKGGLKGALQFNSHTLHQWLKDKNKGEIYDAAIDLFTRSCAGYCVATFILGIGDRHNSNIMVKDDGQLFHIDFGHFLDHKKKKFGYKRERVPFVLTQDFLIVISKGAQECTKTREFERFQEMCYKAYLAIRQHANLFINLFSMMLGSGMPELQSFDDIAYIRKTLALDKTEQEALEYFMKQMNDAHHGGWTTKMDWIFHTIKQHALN

For the molecule `COc1ncc(N2CCOc3ccc(O[C@@H]4CON(C(=O)C5CCOCC5)C4)cc32)cc1C#N` [Example D24, 2-Methoxy-5-{6-[(S)-2-(tetrahydro-pyran-4-carbonyl)-isoxazolidin-4-yloxy]-2,3-dihydro-benzo[1,4]oxazin-4-yl}-nicotinonitrile], the pIC50 on PI3K alpha is less than 5.04; on PI3K delta, 5.15.
For `CCC(=O)N1CC[C@H](Oc2ccc3c(c2)N(c2cnc4ccccc4c2)CCO3)C1` [Example A36, 1-[(S)-3-(4-Quinolin-3-yl-3,4-dihydro-2H-benzo[1,4]oxazin-6-yloxy)-pyrrolidin-1-yl]-propan-1-one] the same measures were 5.90 and 7.11.
For `Cc1cc(N2CCOc3ccc(O[C@H]4CCN(C(=O)C(C)C)C4)cc32)cnc1S(C)(=O)=O` [Example B33, 1-{(S)-3-[4-(6-Methanesulfonyl-5-methyl-pyridin-3-yl)-3,4-dihydro-2H-benzo[1,4]oxazin-6-yloxy]-pyrrolidin-1-yl}-2-methyl-propan-1-one] the same measures were 6.21 and greater than 8.05.
`COCCC(=O)N1CC[C@H](Oc2ccc3c(c2)N(c2cnc(OC)c(OC)c2)CCO3)C1` [Example B46, 1-{(S)-3-[4-(5,6-Dimethoxy-pyridin-3-yl)-3,4-dihydro-2H-benzo[1,4]oxazin-6-yloxy]-pyrrolidin-1-yl}-3-methoxy-propan-1-one]: the pIC50 on PI3K alpha is 5.68; against PI3K delta, 6.64.
For `CCC(=O)N1C[C@@H](Oc2ccc3c(c2)N(c2cnc(OC)c(C#N)c2)CCO3)CO1` [Example D23, 2-Methoxy-5-[6-((R)-2-propionyl-isoxazolidin-4-yloxy)-2,3-dihydro-benzo[1,4]oxazin-4-yl]-nicotinonitrile], the figures for the pIC50 on PI3K alpha and against PI3K delta were 5.60 and 6.67, respectively.
For `COc1ncc(N2CCOc3cnc(O[C@H]4CCN(C(=O)C5CCS(=O)(=O)CC5)C4)cc32)cc1C(F)(F)F` [Example E6, (1,1-Dioxo-hexahydro-1lambda*6*-thiopyran-4-yl)-{(S)-3-[1-(6-methoxy-5-trifluoromethyl-pyridin-3-yl)-2,3-dihydro-1H-pyrido[3,4-b][1,4]oxazin-7-yloxy]-pyrrolidin-1-yl}-methanone] the same measures were 6.47 and 8.05.
For `COc1ncc(N2CCOc3ccc(O[C@H]4CCN(C(=O)c5nnc(C)o5)C4)cc32)cc1C#N` [Example C12, 2-Methoxy-5-{6-[(S)-1-(5-methyl-[1,3,4]oxadiazole-2-carbonyl)-pyrrolidin-3-yloxy]-2,3-dihydro-benzo[1,4]oxazin-4-yl}-nicotinonitrile] the same measures were 6.52 and 6.94.
For `COc1ncc(N2CCOc3ccc(O[C@H]4CCN(C(=O)c5cnn(C)c5)C4)cc32)cc1C` [Example B20, {(S)-3-[4-(6-Methoxy-5-methyl-pyridin-3-yl)-3,4-dihydro-2H-benzo[1,4]oxazin-6-yloxy]-pyrrolidin-1-yl}-(1-methyl-1H-pyrazol-4-yl)-methanone] the same measures were 6.47 and 7.33.
For the molecule `COc1ncc(N2CCOc3ccc(O[C@H]4CCN(C(=O)CS(C)(=O)=O)C4)cc32)cc1C#N` [Example C11, 5-{6-[(S)-1-(2-Methanesulfonyl-acetyl)-pyrrolidin-3-yloxy]-2,3-dihydro-benzo[1,4]oxazin-4-yl}-2-methoxy-nicotinonitrile], the pIC50 is 6.45 against PI3K alpha and 7.64 against PI3K delta.
For `COc1ncc(N2CCOc3ccc(O[C@H]4CCN(C(=O)c5ccc(=O)[nH]c5)C4)cc32)cc1C` [Example B92, 5-{(S)-3-[4-(6-Methoxy-5-methyl-pyridin-3-yl)-3,4-dihydro-2H-benzo[1,4]oxazin-6-yloxy]-pyrrolidine-1-carbonyl}-1H-pyridin-2-one] the same measures were 6.46 and 8.10.
For `COc1ncc(N2CCOc3ccc(O[C@H]4CON(C(=O)c5cn(C)cn5)C4)cc32)cc1C#N` [Example D26, 2-Methoxy-5-{6-[(R)-2-(1-methyl-1H-imidazole-4-carbonyl)-isoxazolidin-4-yloxy]-2,3-dihydro-benzo[1,4]oxazin-4-yl}-nicotinonitrile] the same measures were 5.91 and 7.55.
For `CCC(=O)N1CC[C@H](Oc2ccc3c(c2)N(c2ccc(OC)c(S(=O)(=O)NOC)c2)CCO3)C1` [Example A31, 2,N-Dimethoxy-5-[6-((S)-1-propionyl-pyrrolidin-3-yloxy)-2,3-dihydro-benzo[1,4]oxazin-4-yl]-benzenesulfonamide] the same measures were 5.22 and 7.06.
With `COc1ncc(N2CCOc3cnc(O[C@H]4CCN(C(=O)c5cn(C)cn5)C4)cc32)cc1C#N` [Example F5, 2-Methoxy-5-{7-[(S)-1-(1-methyl-1H-imidazole-4-carbonyl)-pyrrolidin-3-yloxy]-2,3-dihydro-pyrido[3,4-b][1,4]oxazin-1-yl}-nicotinonitrile], the negative-log IC50 (pIC50) against PI3K alpha is 6.35; against PI3K delta, 7.60.
Regarding `CCC(=O)N1CC[C@H](Oc2ccc3c(c2)N(c2ccc([S+]([O-])CC)nc2)CCO3)C1` (stereo partly drawn) [Example B121, 1-{(S)-3-[4-(6-Ethanesulfinyl-pyridin-3-yl)-3,4-dihydro-2H-benzo[1,4]oxazin-6-yloxy]-pyrrolidin-1-yl}-propan-1-one], the negative logarithm of the IC50 (pIC50) against PI3K alpha is 5.47; at PI3K delta it was 7.12.
For `COc1ccc(N2CCOc3ccc(O[C@H]4CCN(C(=O)CN(C)C)C4)cc32)cn1` [Example D3, 2-Dimethylamino-1-{(S)-3-[4-(6-methoxy-pyridin-3-yl)-3,4-dihydro-2H-benzo[1,4]oxazin-6-yloxy]-pyrrolidin-1-yl}-ethanone] the same measures were 5.35 and 6.66.
For `Cc1cc(N2CCOc3ccc(O[C@H]4CCN(C(=O)c5ccncc5)C4)cc32)cnc1S(C)(=O)=O` [Example B22, {(S)-3-[4-(6-Methanesulfonyl-5-methyl-pyridin-3-yl)-3,4-dihydro-2H-benzo[1,4]oxazin-6-yloxy]-pyrrolidin-1-yl}-pyridin-4-yl-methanone] the same measures were 6.23 and 8.30.
For `COc1ncc(N2CCOc3ccc(O[C@H]4CCN(C(=O)C5=CC(=O)CC(C)(C)O5)C4)cc32)cc1C#N` [Example C21, 5-{6-[(S)-1-(6,6-Dimethyl-4-oxo-5,6-dihydro-4H-pyran-2-carbonyl)-pyrrolidin-3-yloxy]-2,3-dihydro-benzo[1,4]oxazin-4-yl}-2-methoxy-nicotinonitrile] the same measures were 6.16 and 7.55.
With `CCC(=O)N1CC[C@H](Oc2ccc3c(c2)N(c2cncc(S(=O)(=O)C(C)C)c2)CCO3)C1` [Example B5, 1-((S)-3-{4-[5-(Propane-2-sulfonyl)-pyridin-3-yl]-3,4-dihydro-2H-benzo[1,4]oxazin-6-yloxy}-pyrrolidin-1-yl)-propan-1-one], the pIC50 at PI3K alpha is 6.63; against PI3K delta, 7.60.
Turning to `CCC(=O)N1CC[C@H](Oc2ccc3c(c2)N(c2ccc(OC)c(S(C)(=O)=O)c2)CCO3)C1` [Example A16, 1-{(S)-3-[4-(3-Methanesulfonyl-4-methoxy-phenyl)-3,4-dihydro-2H-benzo[1,4]oxazin-6-yloxy]-pyrrolidin-1-yl}-propan-1-one], the results for the negative logarithm of the IC50 (pIC50) on PI3K alpha and at PI3K delta were less than 5.04 and 6.49, respectively.
`CCC(=O)N1CC[C@H](Oc2ccc3c(c2)N(c2cncc(S(=O)(=O)N4CCN(C)CC4)c2)CCO3)C1` [Example A28, 1-((S)-3-{4-[5-(4-Methyl-piperazine-1-sulfonyl)-pyridin-3-yl]-3,4-dihydro-2H-benzo[1,4]oxazin-6-yloxy}-pyrrolidin-1-yl)-propan-1-one]: the negative-log IC50 (pIC50) at PI3K alpha is 6.27; against PI3K delta, 7.80.
For `Cc1cc(N2CCOc3ccc(O[C@H]4CCN(C(=O)C5CCOC(C)(C)C5)C4)cc32)cnc1S(C)(=O)=O` (stereo partly drawn) [Example B26, (2,2-Dimethyl-tetrahydro-pyran-4-yl)-{(S)-3-[4-(6-methanesulfonyl-5-methyl-pyridin-3-yl)-3,4-dihydro-2H-benzo[1,4]oxazin-6-yloxy]-pyrrolidin-1-yl}-methanone] the same measures were 6.55 and greater than 8.05.
For `CCC(=O)N1CC[C@H](Oc2ccc3c(c2)N(c2ccc(S(=O)(=O)CC)nc2)CCO3)C1` [Example B96, 1-{(S)-3-[4-(6-Ethanesulfonyl-pyridin-3-yl)-3,4-dihydro-2H-benzo[1,4]oxazin-6-yloxy]-pyrrolidin-1-yl}-propan-1-one] the same measures were less than 5.04 and 6.93.
Consider `CCC(=O)N1CC[C@H](Oc2ccc3c(c2)N(c2cnc(OC)c(C#N)c2)CCO3)C1` [Example A9, 2-Methoxy-5-[6-((S)-1-propionyl-pyrrolidin-3-yloxy)-2,3-dihydro-benzo[1,4]oxazin-4-yl]-nicotinonitrile], for which the pIC50 on PI3K alpha was 6.39; on PI3K delta, 7.85.
For `COc1ncc(N2CCOc3ccc(O[C@H]4CCN(C(=O)[C@H]5CC[C@H](O)CC5)C4)cc32)cc1C#N` [R, 5-{6-[(S)-1-(4-Hydroxy-cyclohexanecarbonyl)-pyrrolidin-3-yloxy]-2,3-dihydro-benzo[1,4]oxazin-4-yl}-2-methoxy-nicotinonitrile] the same measures were 6.22 and 7.96.
For `COc1ncc(N2CCOc3ccc(O[C@H]4CCN(C(=O)C(C)(C)O)C4)cc32)cc1C#N` [Example D15, 5-{6-[(S)-1-(2-Hydroxy-2-methyl-propionyl)-pyrrolidin-3-yloxy]-2,3-dihydro-benzo[1,4]oxazin-4-yl}-2-methoxy-nicotinonitrile] the same measures were 6.15 and 7.24.
For `CS(=O)(=O)c1ncc(N2CCOc3ccc(O[C@H]4CCN(C(=O)C5CCOCC5)C4)cc32)cc1C(F)(F)F` [Example B69, {(S)-3-[4-(6-Methanesulfonyl-5-trifluoromethyl-pyridin-3-yl)-3,4-dihydro-2H-benzo[1,4]oxazin-6-yloxy]-pyrrolidin-1-yl}-(tetrahydro-pyran-4-yl)-methanone] the same measures were 6.72 and 8.30.
